What was measured:
[1] = biological target: Phosphatidylinositol 4-phosphate 3-kinase C2 domain-containing subunit beta (Homo sapiens) (UniProt O00750); conditions: Compound concentration 1000.0 nM
[2] = biological target: Cyclin-G-associated kinase (Homo sapiens) (UniProt O14976); conditions: Compound concentration 1000.0 nM
[3] = biological target: Dual specificity protein kinase TTK (Homo sapiens) (UniProt P33981); conditions: Compound concentration 1000.0 nM
[4] = biological target: Insulin receptor (Homo sapiens) (UniProt P06213); conditions: Compound concentration 1000.0 nM
[5] = biological target: Cyclin-dependent kinase 15 (Homo sapiens) (UniProt Q96Q40); conditions: Compound concentration 1000.0 nM
[6] = biological target: Serine/threonine-protein kinase 4 (Homo sapiens) (UniProt Q13043); conditions: Compound concentration 1000.0 nM
[7] = biological target: Serine/threonine-protein kinase 10 (Homo sapiens) (UniProt O94804); conditions: Compound concentration 1000.0 nM
[8] = biological target: Acetylcholine receptor subunit alpha (Homo sapiens) (UniProt P02708); assay: NACH/H Eurofins-Panlabs selectivity data (BI); conditions: Compound concentration 10.0 uM
Acetylcholine receptor subunit alpha (Homo sapiens), sequence (P02708 whole entry): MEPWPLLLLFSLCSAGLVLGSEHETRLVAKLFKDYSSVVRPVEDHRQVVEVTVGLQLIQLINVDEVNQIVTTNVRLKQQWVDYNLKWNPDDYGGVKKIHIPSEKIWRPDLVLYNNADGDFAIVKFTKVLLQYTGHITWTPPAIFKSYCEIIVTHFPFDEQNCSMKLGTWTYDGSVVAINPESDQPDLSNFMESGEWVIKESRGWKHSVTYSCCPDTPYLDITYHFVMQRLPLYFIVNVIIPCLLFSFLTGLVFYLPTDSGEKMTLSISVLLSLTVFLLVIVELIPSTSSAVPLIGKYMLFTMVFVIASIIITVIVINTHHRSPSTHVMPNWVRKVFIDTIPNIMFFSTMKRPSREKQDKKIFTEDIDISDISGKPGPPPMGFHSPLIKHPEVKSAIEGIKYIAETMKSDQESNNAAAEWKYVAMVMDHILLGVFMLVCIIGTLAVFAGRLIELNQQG

[9] = tested on: Proto-oncogene tyrosine-protein kinase receptor Ret (Homo sapiens), P07949 [V804M]; conditions: Compound concentration 1000.0 nM
[10] = biological target: Ephrin type-A receptor 3 (Homo sapiens) (UniProt P29320); conditions: Compound concentration 1000.0 nM
[11] = biological target: RAF proto-oncogene serine/threonine-protein kinase (Homo sapiens) (UniProt P04049); conditions: Compound concentration 1000.0 nM
[12] = biological target: Calcium/calmodulin-dependent protein kinase kinase 1 (Homo sapiens) (UniProt Q8N5S9); conditions: Compound concentration 1000.0 nM
[13] = biological target: Phosphatidylinositol 3-kinase catalytic subunit type 3 (Homo sapiens) (UniProt Q8NEB9); conditions: Compound concentration 1000.0 nM
[14] = biological target: Casein kinase II subunit alpha' (Homo sapiens) (UniProt P19784); conditions: Compound concentration 1000.0 nM
[15] = tested on: Epidermal growth factor receptor (Homo sapiens), P00533 [G719S]; conditions: Compound concentration 1000.0 nM
[16] = biological target: Death-associated protein kinase 2 (Homo sapiens) (UniProt Q9UIK4); conditions: Compound concentration 1000.0 nM
Death-associated protein kinase 2 (Homo sapiens), sequence (Q9UIK4 whole entry, looked up): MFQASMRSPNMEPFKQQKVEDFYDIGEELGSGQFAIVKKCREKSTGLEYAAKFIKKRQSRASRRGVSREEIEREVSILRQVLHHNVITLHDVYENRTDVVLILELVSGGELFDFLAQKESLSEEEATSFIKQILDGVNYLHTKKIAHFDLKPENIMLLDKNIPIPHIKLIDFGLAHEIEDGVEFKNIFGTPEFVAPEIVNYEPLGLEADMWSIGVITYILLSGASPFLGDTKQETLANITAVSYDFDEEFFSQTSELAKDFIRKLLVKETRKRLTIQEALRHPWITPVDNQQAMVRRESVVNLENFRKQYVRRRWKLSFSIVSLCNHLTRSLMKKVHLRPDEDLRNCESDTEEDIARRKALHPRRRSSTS

[17] = biological target: Tyrosine-protein kinase Fgr (Homo sapiens) (UniProt P09769); conditions: Compound concentration 1000.0 nM
[18] = biological target: Calcium/calmodulin-dependent protein kinase type II subunit gamma (Homo sapiens) (UniProt Q13555); conditions: Compound concentration 1000.0 nM
[19] = biological target: Sodium-dependent dopamine transporter (Homo sapiens, UniProt Q01959); assay: DATRANS/H Eurofins-Panlabs selectivity data (BI); conditions: Compound concentration 10.0 uM
[20] = biological target: Ephrin type-A receptor 5 (Homo sapiens) (UniProt P54756); conditions: Compound concentration 1000.0 nM
[21] = biological target: Serine/threonine-protein kinase PknB (Mycobacterium tuberculosis) (UniProt P9WI81); conditions: Compound concentration 1000.0 nM
[22] = biological target: Mitogen-activated protein kinase kinase kinase 11 (Homo sapiens) (UniProt Q16584); conditions: Compound concentration 1000.0 nM
[23] = biological target: Myosin light chain kinase family member 4 (Homo sapiens) (UniProt Q86YV6); conditions: Compound concentration 1000.0 nM
[24] = biological target: Mitogen-activated protein kinase 14 (Homo sapiens) (UniProt Q16539); conditions: Compound concentration 1000.0 nM
Mitogen-activated protein kinase 14 (Homo sapiens), sequence (Q16539 whole entry): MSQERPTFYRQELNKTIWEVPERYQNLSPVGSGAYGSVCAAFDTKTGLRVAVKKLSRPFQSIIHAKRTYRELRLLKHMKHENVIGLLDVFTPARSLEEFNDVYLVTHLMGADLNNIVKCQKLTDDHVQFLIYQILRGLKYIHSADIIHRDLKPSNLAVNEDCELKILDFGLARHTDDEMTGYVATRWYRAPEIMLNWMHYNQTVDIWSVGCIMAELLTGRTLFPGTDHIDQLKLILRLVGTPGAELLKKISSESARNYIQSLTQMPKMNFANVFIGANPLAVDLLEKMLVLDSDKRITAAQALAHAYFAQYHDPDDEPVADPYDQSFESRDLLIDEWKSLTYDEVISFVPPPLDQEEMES

[25] = biological target: Serine/threonine-protein kinase OSR1 (Homo sapiens) (UniProt O95747); conditions: Compound concentration 1000.0 nM
[26] = biological target: Ribosomal protein S6 kinase alpha-5 (Homo sapiens) (UniProt O75582); conditions: Compound concentration 1000.0 nM
Ribosomal protein S6 kinase alpha-5 (Homo sapiens), sequence (O75582 whole entry, looked up): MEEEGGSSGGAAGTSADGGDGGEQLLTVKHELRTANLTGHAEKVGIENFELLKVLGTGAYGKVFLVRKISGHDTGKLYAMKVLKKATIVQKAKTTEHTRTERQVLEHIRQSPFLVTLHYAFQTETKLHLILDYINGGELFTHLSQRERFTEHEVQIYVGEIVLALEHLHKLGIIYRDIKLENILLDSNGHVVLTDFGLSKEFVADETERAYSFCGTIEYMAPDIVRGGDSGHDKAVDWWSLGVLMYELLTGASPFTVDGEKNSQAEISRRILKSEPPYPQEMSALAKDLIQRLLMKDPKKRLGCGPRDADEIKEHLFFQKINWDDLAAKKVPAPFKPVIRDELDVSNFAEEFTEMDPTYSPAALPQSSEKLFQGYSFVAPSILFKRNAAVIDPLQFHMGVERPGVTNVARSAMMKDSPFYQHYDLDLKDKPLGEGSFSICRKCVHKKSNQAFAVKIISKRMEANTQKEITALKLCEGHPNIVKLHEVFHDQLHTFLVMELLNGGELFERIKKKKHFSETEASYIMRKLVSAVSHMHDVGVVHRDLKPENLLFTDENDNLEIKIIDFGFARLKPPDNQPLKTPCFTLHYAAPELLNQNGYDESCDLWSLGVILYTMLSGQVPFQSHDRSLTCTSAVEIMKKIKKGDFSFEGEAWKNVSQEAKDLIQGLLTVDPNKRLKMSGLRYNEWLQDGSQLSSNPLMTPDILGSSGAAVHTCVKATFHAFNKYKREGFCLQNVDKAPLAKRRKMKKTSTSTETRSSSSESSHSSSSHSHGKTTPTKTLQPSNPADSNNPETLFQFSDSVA

[27] = biological target: Serine/threonine-protein kinase pim-1 (Homo sapiens) (UniProt P11309); conditions: Compound concentration 1000.0 nM
[28] = biological target: Cyclin-dependent kinase 14 (Homo sapiens) (UniProt O94921); conditions: Compound concentration 1000.0 nM
[29] = biological target: Cyclin-dependent kinase 5 (Homo sapiens) (UniProt Q00535); conditions: Compound concentration 1000.0 nM
[30] = biological target: Serine/threonine-protein kinase 25 (Homo sapiens) (UniProt O00506); conditions: Compound concentration 1000.0 nM
[31] = biological target: TGF-beta receptor type-1 (Homo sapiens) (UniProt P36897); conditions: Compound concentration 1000.0 nM
[32] = biological target: Serine/threonine-protein kinase STK11 (Homo sapiens) (UniProt Q15831); conditions: Compound concentration 1000.0 nM
[33] = biological target: Calcium-dependent protein kinase 1 (Plasmodium falciparum) (UniProt P62344); conditions: Compound concentration 1000.0 nM
[34] = biological target: Ribosomal protein S6 kinase alpha-2 (Homo sapiens) (UniProt Q15349); conditions: Compound concentration 1000.0 nM
[35] = biological target: Platelet-derived growth factor receptor alpha (Homo sapiens) (UniProt P16234); conditions: Compound concentration 1000.0 nM
Platelet-derived growth factor receptor alpha (Homo sapiens), sequence (P16234 whole entry): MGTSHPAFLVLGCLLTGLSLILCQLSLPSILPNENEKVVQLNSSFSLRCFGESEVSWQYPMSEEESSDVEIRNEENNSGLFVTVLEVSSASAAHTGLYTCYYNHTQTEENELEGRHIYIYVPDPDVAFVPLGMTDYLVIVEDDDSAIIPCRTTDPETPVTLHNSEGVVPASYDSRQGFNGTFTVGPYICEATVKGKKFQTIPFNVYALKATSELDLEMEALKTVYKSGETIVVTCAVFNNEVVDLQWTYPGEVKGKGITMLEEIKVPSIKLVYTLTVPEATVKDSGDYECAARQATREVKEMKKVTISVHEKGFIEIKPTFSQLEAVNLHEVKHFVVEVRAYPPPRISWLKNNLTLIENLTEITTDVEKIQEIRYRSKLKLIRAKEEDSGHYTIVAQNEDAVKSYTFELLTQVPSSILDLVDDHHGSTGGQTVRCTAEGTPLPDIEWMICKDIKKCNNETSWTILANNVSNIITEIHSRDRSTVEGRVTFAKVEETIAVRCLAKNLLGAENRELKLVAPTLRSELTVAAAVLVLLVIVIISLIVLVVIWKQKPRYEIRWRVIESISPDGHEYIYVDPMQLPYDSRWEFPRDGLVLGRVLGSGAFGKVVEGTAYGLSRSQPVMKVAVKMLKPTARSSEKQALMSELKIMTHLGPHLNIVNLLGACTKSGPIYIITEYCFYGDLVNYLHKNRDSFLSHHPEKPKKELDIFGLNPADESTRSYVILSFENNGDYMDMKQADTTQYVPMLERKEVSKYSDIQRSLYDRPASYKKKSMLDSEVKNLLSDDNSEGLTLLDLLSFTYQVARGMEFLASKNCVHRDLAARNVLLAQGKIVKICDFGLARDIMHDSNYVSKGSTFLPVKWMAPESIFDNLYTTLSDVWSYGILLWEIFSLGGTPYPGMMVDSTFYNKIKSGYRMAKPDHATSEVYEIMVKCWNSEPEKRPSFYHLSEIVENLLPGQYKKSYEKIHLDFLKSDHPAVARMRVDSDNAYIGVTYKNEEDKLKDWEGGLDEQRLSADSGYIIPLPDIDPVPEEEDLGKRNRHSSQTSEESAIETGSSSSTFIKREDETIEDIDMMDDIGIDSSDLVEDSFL

[36] = biological target: Glutamate receptor ionotropic, NMDA 1 (Rattus norvegicus) (UniProt P35439); assay: GLUTAMAT/R Eurofins-Panlabs selectivity data (BI); conditions: Compound concentration 10.0 uM
[37] = biological target: Tyrosine-protein kinase receptor UFO (Homo sapiens) (UniProt P30530); conditions: Compound concentration 1000.0 nM
[38] = biological target: Sodium-dependent noradrenaline transporter (Homo sapiens) (UniProt P23975); conditions: Compound concentration 10.0 uM
[39] = biological target: Inhibitor of nuclear factor kappa-B kinase subunit alpha (Homo sapiens) (UniProt O15111); conditions: Compound concentration 1000.0 nM
Inhibitor of nuclear factor kappa-B kinase subunit alpha (Homo sapiens), sequence (O15111 whole entry): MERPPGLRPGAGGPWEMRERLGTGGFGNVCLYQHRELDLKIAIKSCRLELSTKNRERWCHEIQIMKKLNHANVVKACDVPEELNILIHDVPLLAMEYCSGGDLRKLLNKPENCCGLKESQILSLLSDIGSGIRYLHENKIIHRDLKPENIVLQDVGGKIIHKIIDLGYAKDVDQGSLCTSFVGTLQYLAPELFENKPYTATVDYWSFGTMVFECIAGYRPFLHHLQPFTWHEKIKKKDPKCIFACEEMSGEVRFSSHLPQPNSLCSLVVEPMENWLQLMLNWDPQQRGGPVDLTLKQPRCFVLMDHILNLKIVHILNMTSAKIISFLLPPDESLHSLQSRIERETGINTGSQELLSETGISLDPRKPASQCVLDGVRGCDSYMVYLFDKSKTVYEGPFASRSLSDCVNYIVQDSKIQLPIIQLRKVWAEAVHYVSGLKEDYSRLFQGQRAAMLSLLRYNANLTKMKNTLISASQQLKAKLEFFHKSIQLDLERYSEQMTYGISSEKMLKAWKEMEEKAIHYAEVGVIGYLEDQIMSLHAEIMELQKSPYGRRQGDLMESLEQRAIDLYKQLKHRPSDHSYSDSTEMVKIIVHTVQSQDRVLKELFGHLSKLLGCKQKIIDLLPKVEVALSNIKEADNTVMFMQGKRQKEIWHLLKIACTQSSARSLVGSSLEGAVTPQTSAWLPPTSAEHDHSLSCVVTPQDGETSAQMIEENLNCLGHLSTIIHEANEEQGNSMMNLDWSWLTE

[40] = biological target: Dual specificity protein kinase CLK1 (Homo sapiens) (UniProt P49759); conditions: Compound concentration 1000.0 nM
[41] = biological target: Macrophage colony-stimulating factor 1 receptor (Homo sapiens) (UniProt P07333); conditions: Compound concentration 1000.0 nM
Macrophage colony-stimulating factor 1 receptor (Homo sapiens), sequence (P07333 whole entry): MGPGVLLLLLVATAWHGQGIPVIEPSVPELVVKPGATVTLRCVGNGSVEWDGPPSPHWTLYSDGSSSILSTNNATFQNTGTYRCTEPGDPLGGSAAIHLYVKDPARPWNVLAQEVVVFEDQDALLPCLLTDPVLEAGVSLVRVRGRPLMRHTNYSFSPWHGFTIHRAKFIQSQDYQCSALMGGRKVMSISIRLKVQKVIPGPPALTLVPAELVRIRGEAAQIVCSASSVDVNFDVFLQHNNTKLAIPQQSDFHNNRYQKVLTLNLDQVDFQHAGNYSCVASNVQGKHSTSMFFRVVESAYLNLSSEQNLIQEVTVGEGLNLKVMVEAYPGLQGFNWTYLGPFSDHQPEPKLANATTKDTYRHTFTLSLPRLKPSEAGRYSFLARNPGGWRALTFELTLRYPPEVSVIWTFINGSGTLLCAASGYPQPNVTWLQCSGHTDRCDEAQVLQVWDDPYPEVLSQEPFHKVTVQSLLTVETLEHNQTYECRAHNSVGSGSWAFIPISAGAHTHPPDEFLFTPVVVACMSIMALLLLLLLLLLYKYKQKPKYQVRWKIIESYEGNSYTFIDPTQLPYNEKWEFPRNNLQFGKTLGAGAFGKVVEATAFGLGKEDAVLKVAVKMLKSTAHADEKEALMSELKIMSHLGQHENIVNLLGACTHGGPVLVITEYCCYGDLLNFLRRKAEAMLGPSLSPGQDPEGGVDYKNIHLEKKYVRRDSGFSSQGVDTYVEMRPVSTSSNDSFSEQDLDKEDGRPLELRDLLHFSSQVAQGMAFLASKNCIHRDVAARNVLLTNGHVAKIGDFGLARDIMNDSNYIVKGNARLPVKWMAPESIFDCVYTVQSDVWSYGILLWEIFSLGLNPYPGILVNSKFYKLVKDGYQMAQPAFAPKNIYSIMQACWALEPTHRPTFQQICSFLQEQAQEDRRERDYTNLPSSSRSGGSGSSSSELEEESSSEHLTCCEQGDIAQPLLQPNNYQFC

[42] = tested on: Tyrosine-protein kinase ABL1 (Homo sapiens), P00519 [T315I]; conditions: Compound concentration 1000.0 nM
[43] = biological target: ALK tyrosine kinase receptor (Homo sapiens) (UniProt Q9UM73); conditions: Compound concentration 1000.0 nM
[44] = biological target: Mitogen-activated protein kinase kinase kinase 7 (Homo sapiens) (UniProt O43318); conditions: Compound concentration 1000.0 nM
[45] = biological target: Protein-tyrosine kinase 6 (Homo sapiens) (UniProt Q13882); conditions: Compound concentration 1000.0 nM

CCOCCn1cc(C(=O)Nc2ccc(-n3nc(-c4cccnc4)cc3C(F)(F)F)cn2)ccc1=O [BI 1935]
inactive: residual activity [1] 72% | residual activity [2] 100% | residual activity [3] 100% | residual activity [4] 98% | residual activity [5] 100% | residual activity [6] 100% | residual activity [7] 100% | residual activity [8] 114% | residual activity [9] 100% | residual activity [10] 99% | residual activity [11] 100% | residual activity [12] 100% | residual activity [13] 77% | residual activity [14] 100% | residual activity [15] 100% | residual activity [16] 93% | residual activity [17] 100% | residual activity [18] 100% | residual activity [19] 98% | residual activity [20] 100% | residual activity [21] 95% | residual activity [22] 100% | residual activity [23] 100% | residual activity [24] 100% | residual activity [25] 92% | residual activity [26] 63% | residual activity [27] 100% | residual activity [28] 100% | residual activity [29] 100% | residual activity [30] 95% | residual activity [31] 100% | residual activity [32] 89% | residual activity [33] 71% | residual activity [34] 84% | residual activity [35] 68% | residual activity [36] 103% | residual activity [37] 91% | inhibition [38] -7.51% | residual activity [39] 100% | residual activity [40] 100% | residual activity [41] 100% | residual activity [42] 96% | residual activity [43] 79% | residual activity [44] 90% | residual activity [45] 100%

Source: ChEMBL document CHEMBL4507283, “Data for DCP probe BI-1935” (2021)
